Experiments:
PI 3-kinase alpha = PI 3-kinase alpha (Homo sapiens (Human), UniProt P42336); test: Cellular p-Akt (S473) SureFire assay, Rat-1_PI3Kalpha cells (Assay H); format: cell-based; settings: p-AKT (Ser473) in Rat-1 cells expressing myr-HA-hp110 alpha, 1 h compound; read-out: Assay H PI3Kα IC50
Text: Cellular Assays for PI 3-Kinase Alpha (H), Beta (I) and Delta (J)
AlphaScreen (Amplified Luminescent Proximity Homogeneous Assay, ALPHA, Perkin Elmer) is a non-radioactive bead-based proximity assay technology to study biomolecular interactions in a homogenous microtiter plate format. The brand name SureFire denotes AlphaScreen assays that are adapted to quantify the phosphorylation of endogenous cellular proteins in cell lysates, by using matched antibody pairs, which consist of an anti-phospho-kinase and an anti-kinase antibody. The assay allows characterization of kinase signaling in cells as well as measurement of kinase inhibitor effects.
Rat-1 cell lines stably overexpressing activated PI 3-kinase class I isoforms Rat-1 pBABEpuro Myr-HA-hp110 delta clone 5 (Rat-1_PI3Kdelta) and Rat-1 pBABEpuro Myr-HA-hp110 alpha clone 6 (Rat-1_PI3Kalpha) and Rat-1 pBABEpuro Myr-HA-hp110 beta (Rat-1_PI3beta) were cultivated in complete growth medium (DMEM high glucose, 10% (v/v) fetal bovine serum, 1% (v/v) MEM NEAA, 10 mM HEPES, 2 mM L-glutamine, puromycin (10 μg/mL for Rat-1_PI3Kdelta and Rat-1_PI3Kalpha, 4 ug/mL for Rat-1_PI3beta), 1% (v/v) Pen/Strep) to 90% confluency at 37° C./5% CO2/90% humidity in a humidified CO2 incubator and were split twice a week. The following materials were used for p-AKT(5473) detection in Rat-1 cell lysates: Dulbecco's modified Eagle's medium (DMEM) high glucose (Gibco Invitrogen, Basel, Switzerland, Cat. No. 41965), heat inactivated fetal bovine serum, qualified (HI FBS; Gibco Invitrogen, Basel, Switzerland, Lot. No. 16140), MEM non essential amino acids (NEAA; Gibco Invitrogen, Basel, Switzerland, Cat. No. 11140), HEPES (Gibco Invitrogen, Basel, Switzerland, Cat. No. 15630), penicillin/streptomycin (Pen/Strep, 100×; Gibco Invitrogen, Basel, Switzerland, Cat. No. 15140-122), L-glutamine (Gibco Invitrogen, Basel, Switzerland, Cat. No. 25030), puromycin (Sigma Aldrich, Buchs, Switzerland, Cat. No. P9620), DMSO (MERCK, Dietikon, Switzerland, Cat. No. 8.02912.2500), H2O, MilliQ-H2O unless otherwise stated (MILLIPORE QGARDOOR1, Millipore, Zug, Switzerland), bovine serum albumine (BSA; Sigma Aldrich, Buchs, Switzerland Cat. No. A8412), SureFire p-Akt 1/2 (Ser473) Assay Kit (Perkin Elmer, Schwerzenbach, Switzerland, Cat. No. TGRAS50K).
The p-Akt (S473) SureFire assay measures the phosphorylation of endogenous cellular Akt 1/2 at Ser473 in cell lysates. Using Rat-1 cells stably expressing myr-HA-tagged versions of the human PI3Kdelta, PI3Kalpha, or PI3Kbeta p110 catalytic subunit isoforms, the assay was developed as a two-plate protocol in a 384-well format.
For compound testing, the cells were seeded at a density of 4000 (Rat-1_PI3Kdelta), 7500 (Rat-1_PI3Kalpha), or 6200 (Rat-1_PI3Kbeta) cells in 20 μl complete growth medium into cell culture treated 384-well plates and were grown at 37° C./5% CO2/90% humidity for 24 h. Shortly before compound transfer, the complete medium was removed, 30 μl assay buffer (DMEM high glucose, 1×MEM NEAA, 10 mM HEPES, 2 mM L-glutamine, 0.1% (w/v) BSA) was added and 10 μl of the compound predilutions were transferred to the cells. After treatment with compound for 1 h, the cells were lysed by the addition of 20 μl lysis buffer supplemented with 0.24% (w/v) BSA. Detection of p-AKT (Ser473) was performed with the SureFire p-Akt 1/2 (Ser473) Assay Kit according to the manufacturer's instructions using 5 ul of cell lysate in a total detection volume of 12 μl.
IC50 values of the percentage inhibition of each compound at 8 concentrations (usually 10, 3.0, 1.0, 0.3, 0.1, 0.030, 0.010 and 0.003 μM) n=2 were derived by fitting a sigmoidal dose-response curve to a plot of assay readout over inhibitor concentration as described. All fits were performed with the program XLfit4 (ID Business Solutions, Guildford, UK).

mTOR = mTOR (Homo sapiens (Human), UniProt P42345); test: Lanthascreen kinase binding assay (Assay G); settings: GST-mTOR, Tracer-314
Text: Lanthascreen™ Kinase Binding Assay for mTOR (G)
Binding Assays are based on the binding and displacement of an Alexa Fluor® 647-labeled, ATP-competitive kinase inhibitors to the kinase of interest. Invitrogen's “Kinase Tracers” have been developed to address a wide range of kinase targets and are based on ATP-competitive kinase inhibitors, making them suitable for detection of any compounds that bind to the ATP site or to an allosteric site altering the conformation of the ATP site.
In the Lanthascreen™ kinase binding assay, the donor (Eu^3+-anti-GST (glutathione 5-transferase) antibody) is excited at 340 nm and will transfer its energy to the acceptor (Alexa Fluor® 647-labeled ATP-competitive kinase inhibitor=Tracer-314). The emission from the Tracer-314 (Alexa Fluor® 647 inhibitor) can be monitored with a filter centered at 665 nm because it is located between the emission peaks of the donor, which is measured at 615/620 nm. The binding of both, the Tracer-314 and Eu^3+-anti-GST antibody, to the kinase results in a high degree of FRET from the Eu^3+-donor fluorophore to the Alexa-Fluor® 647-acceptor fluorophore on the Tracer-314. Binding of an inhibitor to the kinase competes for binding with the tracer, resulting in a loss of FRET.
50 nL of compound dilutions were dispensed onto white 384-well small volume polystyrene plate. Then 5 μL of GST-mTOR and Europium-anti-GST antibody followed by 5 μL of tracer-314 (final assay volume 10 μL) are incubated at RT. The standard reaction buffer for the Lanthascreen™ kinase binding assay contained 50 mM HEPES pH 7.5, 5 mM MgCl2, 1 mM EGTA, 0.01% Pluronic F-127. Plates are read 60 mins later in a Synergy2 reader using an integration time of 0.2 microseconds and a delay of 0.1 microseconds.
To calculate the emission ratio, the signal emitted at 665 nm from the acceptor (Alexa Fluor® 647-labeled Tracer-314) is divided by the signal emitted at 620 nm from the donor (Eu^3+ anti-GST antibody).
Control for the 0% inhibition was given by the solvent vehicle of the compounds (90% DMSO in H2O). Control for the relative 100% inhibition was performed by adding 10 μM in the mix containing GST-mTOR and Europium anti-GST antibody. An additional control for the absolute 0% inhibition is given by Eu^3+ anti-GST antibody without GST-mTOR. Standard compounds for the lipid kinase panel profiling were used as a reference and included in all assay plates in the form of 8 dilution points.

PI 3-kinase alpha, sequence (P42336 whole entry): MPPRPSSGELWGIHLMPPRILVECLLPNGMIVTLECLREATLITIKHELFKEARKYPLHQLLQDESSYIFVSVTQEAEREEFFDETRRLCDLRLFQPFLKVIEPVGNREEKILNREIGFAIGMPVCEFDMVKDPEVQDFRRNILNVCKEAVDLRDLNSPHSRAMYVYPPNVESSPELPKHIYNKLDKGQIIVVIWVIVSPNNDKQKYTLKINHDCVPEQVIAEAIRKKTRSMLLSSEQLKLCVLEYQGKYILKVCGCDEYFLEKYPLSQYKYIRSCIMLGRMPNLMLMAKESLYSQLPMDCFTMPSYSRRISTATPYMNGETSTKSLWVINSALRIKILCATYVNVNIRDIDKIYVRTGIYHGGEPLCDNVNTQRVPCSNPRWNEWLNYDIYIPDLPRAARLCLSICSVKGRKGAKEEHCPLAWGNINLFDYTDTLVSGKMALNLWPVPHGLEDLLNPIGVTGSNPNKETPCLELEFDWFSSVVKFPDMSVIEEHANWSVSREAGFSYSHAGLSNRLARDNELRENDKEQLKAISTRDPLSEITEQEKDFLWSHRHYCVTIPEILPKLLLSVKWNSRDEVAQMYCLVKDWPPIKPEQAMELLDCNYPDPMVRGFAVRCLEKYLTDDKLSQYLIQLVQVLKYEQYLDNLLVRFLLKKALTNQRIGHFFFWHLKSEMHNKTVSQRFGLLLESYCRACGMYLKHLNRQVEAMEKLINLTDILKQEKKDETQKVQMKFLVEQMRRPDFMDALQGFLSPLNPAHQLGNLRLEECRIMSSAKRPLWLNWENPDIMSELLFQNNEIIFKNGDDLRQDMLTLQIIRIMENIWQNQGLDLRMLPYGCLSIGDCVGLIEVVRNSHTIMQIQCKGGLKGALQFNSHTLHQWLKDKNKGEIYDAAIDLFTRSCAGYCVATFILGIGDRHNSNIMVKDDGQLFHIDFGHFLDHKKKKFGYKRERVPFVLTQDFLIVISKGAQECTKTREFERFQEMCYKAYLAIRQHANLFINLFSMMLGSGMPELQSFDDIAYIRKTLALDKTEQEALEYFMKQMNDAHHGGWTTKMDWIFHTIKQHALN
PI 3-kinase alpha, sequence (Q63787 whole entry partner): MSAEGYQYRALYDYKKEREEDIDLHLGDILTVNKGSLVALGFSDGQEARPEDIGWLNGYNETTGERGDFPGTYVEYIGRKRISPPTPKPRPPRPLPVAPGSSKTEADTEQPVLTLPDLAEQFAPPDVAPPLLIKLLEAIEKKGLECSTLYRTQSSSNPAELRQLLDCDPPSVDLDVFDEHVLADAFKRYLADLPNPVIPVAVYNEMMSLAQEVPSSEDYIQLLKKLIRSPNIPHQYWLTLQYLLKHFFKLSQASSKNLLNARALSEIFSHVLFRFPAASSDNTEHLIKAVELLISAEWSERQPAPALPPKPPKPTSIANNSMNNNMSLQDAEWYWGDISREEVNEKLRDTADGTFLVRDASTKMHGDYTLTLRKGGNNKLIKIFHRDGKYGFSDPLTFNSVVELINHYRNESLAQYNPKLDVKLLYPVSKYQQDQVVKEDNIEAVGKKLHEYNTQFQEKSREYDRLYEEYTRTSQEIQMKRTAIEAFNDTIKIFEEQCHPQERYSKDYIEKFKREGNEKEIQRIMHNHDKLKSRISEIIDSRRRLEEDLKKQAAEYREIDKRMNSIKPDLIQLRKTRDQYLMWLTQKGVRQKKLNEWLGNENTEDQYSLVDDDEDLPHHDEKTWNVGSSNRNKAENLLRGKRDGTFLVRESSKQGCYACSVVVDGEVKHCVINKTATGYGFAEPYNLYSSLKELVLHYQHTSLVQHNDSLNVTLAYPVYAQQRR

Compound	IC50 (PI 3-kinase alpha)	IC50 (mTOR)
Cc1ccc(S(=O)(=O)NCCC(C)(C)O)cc1-c1cncc(-c2cn(CCN3CCOCC3)nc2C)n1 [Example 10, N-(3-Hydroxy-3-methyl-butyl)-4-methyl-3-{6-[3-methyl-1-(2-morpholin-4-yl-ethyl)-1H-pyrazol-4-yl]-pyrazin-2-yl}-benzenesulfonamide]	3.09 µM	9.8 µM
Cc1ccc(S(=O)(=O)NCC(C)(C)O)cc1-c1cncc(-c2cn(C)nc2C)n1 [Example 2, 3-[6-(1,3-Dimethyl-1H-pyrazol-4-yl)-pyrazin-2-yl]-N-(2-hydroxy-2-methyl-propyl)-4-methyl-benzenesulfonamide]	0.45 µM	1.18 µM
Cc1ncc(-c2cncc(-c3cc(S(=O)(=O)NCCCO)ccc3C)n2)s1 [Example 1, N-(3-Hydroxy-propyl)-4-methyl-3-[6-(2-methyl-thiazol-5-yl)-pyrazin-2-yl]-benzenesulfonamide]		5.25 µM
Cc1ccc(S(=O)(=O)NCC2(C)COC2)cc1-c1cncc(-c2cn(C)nc2C)n1 [Example 4, Trans 3-[6-(1,3-Dimethyl-1H-pyrazol-4-yl)-pyrazin-2-yl]-4-methyl-N-(3-methyl-oxetan-3-ylmethyl)-benzenesulfonamide]	0.293 µM	0.89 µM
Cc1ccc(S(=O)(=O)NCCC(C)(C)O)cc1-c1cncc(-c2cnn(CCN3CCOCC3)c2)n1 [Example 9, N-(3-Hydroxy-3-methyl-butyl)-4-methyl-3-{6-[1-(2-morpholin-4-yl-ethyl)-1H-pyrazol-4-yl]-pyrazin-2-yl}-benzenesulfonamide]	2.48 µM	> 9.1 µM
Cc1ccc(S(=O)(=O)NCC(C)(C)CO)cc1-c1cncc(-c2cn(C)nc2C)n1 [Example 8, 3-[6-(1,3-Dimethyl-1H-pyrazol-4-yl)-pyrazin-2-yl]-N-(3-hydroxy-2,2-dimethyl-propyl)-4-methyl-benzenesulfonamide]		1.95 µM
Cc1ncc(-c2cncc(-c3cc(S(=O)(=O)N[C@H]4CC[C@H](O)CC4)ccc3C)n2)s1 [Example 5, Trans N-(4-Hydroxycyclohexyl)-4-methyl-3-(6-(2-methylthiazol-5-yl)pyrazin-2-yl)benzenesulfonamide]	0.838 µM	4.77 µM
Cc1ccc(S(=O)(=O)N[C@H]2CC[C@H](O)CC2)cc1-c1cncc(-c2cccnc2)n1 [Example 11, Trans N-(4-Hydroxy-cyclohexyl)-4-methyl-3-(6-pyridin-3-yl-pyrazin-2-yl)-benzenesulfonamide]	1.7 µM	6.24 µM
Cc1ccc(S(=O)(=O)NCCC(C)(C)O)cc1-c1cncc(-c2cn(C)nc2C)n1 [Example 3, 3-[6-(1,3-Dimethyl-1H-pyrazol-4-yl)-pyrazin-2-yl]-N-(3-hydroxy-3-methyl-butyl)-4-methyl-benzenesulfonamide]	1.02 µM	3.85 µM
